Measured values reported in publication PMC10304174, “Development of Zeise’s Salt Derivatives Bearing Substituted Acetylsalicylic Acid Substructures as Cytotoxic COX Inhibitors” (Pharmaceutics, 2023).

Key:
[1] = Complex stability by capillary electrophoresis (decrease of initial complex over time); assay type: physicochemical; details: MeOH/water (50/50, v/v), 1 mM, 37 °C, CE
Protocol: The analysis was performed as previously described. A 50 mM sodium tetraborate solution (pH = 9.3, adjusted with 1 M NaOH), served as background electrolyte (BGE). Washing of novel capillaries consecutively with 1 M NaOH (45 min), water (45 min), and BGE (45 min) was performed. The hydrodynamic injection mode was utilized to introduce the samples into the capillary (50 mbar for 2 s). The capillary was kept at 25 °C, and the autosampler was thermostatted at 37 °C with an external water bath. For separation, the voltage was set to 20 kV, and the detection was carried out at the wavelength of 230 nm. Before each measurement, flushing of the capillary with 0.1 M NaOH (3 min), water (3 min), and BGE (5 min) took place. The samples were dissolved in methanol (MeOH) and further diluted in equal parts by volume with water to give a final concentration of 1 mM. Triple determinations were performed, and the half-lives (τ½) are presented as mean ± SD of ≥3 independent experiments. Samples, washing solutions, and buffers were filtered through a membrane with 0.22 µm porosity and degassed by ultrasonication before use. To simplify the reaction dynamics from a possible second-order to pseudo-first-order, one of two reactants must be present in great excess (>10 to 25-fold). If this condition is fulfilled, logarithmic plotting of the gradual decrease in the other reactant’s concentration (or increase in the concentration of a product, respectively) against the time yields a straight line, and half-lives can be calculated.
An already-established method was used to study the stability of the X-ASA-Prop-PtCl3 and X-ASA-But-PtCl3 complexes. The degradation products were separated by capillary electrophoresis using a fused-silica capillary ([…] × 75 µm, effective length: 56 cm, capillary temperature: 25 °C) and a 50 mM tetraborate buffer (pH = 9.3) as BGE. For separation, the voltage was set to 20 kV and the compounds were detected at 230 nm. Benzoic acid was used as an internal standard. Exemplary electropherograms of each complex can be found in the Supplementary Material (Figures S1–S24).
The complexes (1 mM) were dissolved in MeOH or MeOH/water (50/50, v/v) and stored at 37 °C. The decrease in the initial amount of complex was monitored time-dependently by CE, and the half-life (τ½) was calculated (Table 2).

COX-1 [2] = molecular target: T1, COX-1 (Ovis aries, UniProt P05979); assay: COX Inhibitor Screening Assay (EIA) on isolated COX-1 isoenzyme; assay type: biochemical, ovine; details: for Inhibition of COX-1: incubation 10 min
T1 construct: purchased Cayman Chemicals
T1 sequence (P05979 25-600): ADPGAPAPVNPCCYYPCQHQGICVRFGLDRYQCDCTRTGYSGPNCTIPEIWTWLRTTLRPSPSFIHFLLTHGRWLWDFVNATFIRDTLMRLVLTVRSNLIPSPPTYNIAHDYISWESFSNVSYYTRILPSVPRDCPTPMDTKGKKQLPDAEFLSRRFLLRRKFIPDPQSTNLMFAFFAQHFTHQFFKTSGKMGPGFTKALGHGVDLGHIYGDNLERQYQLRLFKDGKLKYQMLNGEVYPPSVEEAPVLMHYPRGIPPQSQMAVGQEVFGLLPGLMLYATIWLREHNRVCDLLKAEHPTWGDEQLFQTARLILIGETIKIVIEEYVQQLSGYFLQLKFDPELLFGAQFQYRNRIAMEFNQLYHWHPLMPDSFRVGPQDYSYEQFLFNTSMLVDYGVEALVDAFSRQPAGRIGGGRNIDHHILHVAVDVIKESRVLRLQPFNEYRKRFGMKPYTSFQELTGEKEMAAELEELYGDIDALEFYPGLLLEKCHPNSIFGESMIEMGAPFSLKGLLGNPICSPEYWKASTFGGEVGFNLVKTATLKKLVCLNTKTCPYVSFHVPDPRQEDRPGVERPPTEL
Protocol: (§1) The incubation of the respective complexes with the isoenzymes was exactly 10 min. The values of COX inhibition were calculated as the mean of duplicates and shown as the mean ± SD of ≥2 independent experiments.

COX-2 [3] = molecular target: T2, COX-2 (Homo sapiens, UniProt P35354); assay: COX Inhibitor Screening Assay (EIA) on isolated COX-2 isoenzyme; assay type: biochemical; details: incubation 10 min
T2 construct: purchased Cayman Chemicals
T2 sequence (P35354 18-604): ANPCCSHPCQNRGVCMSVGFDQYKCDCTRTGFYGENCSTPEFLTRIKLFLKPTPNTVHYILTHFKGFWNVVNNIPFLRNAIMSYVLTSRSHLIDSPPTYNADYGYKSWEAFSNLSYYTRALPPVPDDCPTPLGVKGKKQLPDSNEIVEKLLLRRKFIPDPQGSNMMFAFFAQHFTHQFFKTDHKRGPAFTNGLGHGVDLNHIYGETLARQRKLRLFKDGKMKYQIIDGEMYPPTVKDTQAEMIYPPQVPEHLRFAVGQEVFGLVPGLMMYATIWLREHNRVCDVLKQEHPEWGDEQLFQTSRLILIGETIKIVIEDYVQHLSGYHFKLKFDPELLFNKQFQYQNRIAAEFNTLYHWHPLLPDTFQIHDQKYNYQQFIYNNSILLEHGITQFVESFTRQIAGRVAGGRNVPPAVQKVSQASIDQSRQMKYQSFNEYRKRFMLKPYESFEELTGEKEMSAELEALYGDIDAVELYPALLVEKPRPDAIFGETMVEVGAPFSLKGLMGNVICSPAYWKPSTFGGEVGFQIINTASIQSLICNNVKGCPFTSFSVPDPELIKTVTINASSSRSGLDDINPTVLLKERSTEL
Protocol: as §1

HT-29 cells [4] = assay: Crystal violet assay, antiproliferative effects in HT-29 cells; assay type: cell-based; details: HT-29 (COX-1/2-positive), 72 h
Protocol: (§2) In order to investigate the cytotoxic effects in MCF-7 and HT-29 cells, an already published crystal violet assay was used. The cells (HT-29: 3 × 10^3 cells per well in 100 µL of medium; MCF-7: 2 × 10^3 cells per well in 100 µL of medium) were seeded in their exponential growth phase in completed DMEM into 96-well microtiter plates in quadruples. […] Cells were then fixed with a solution of 1% (v/v) glutaric dialdehyde in PBS. In order to determine the cell biomass, the chromatin of the attached cells was stained with crystal violet, and the bound dye was extracted with EtOH (70%). The absorbance was measured at 590 nm. Mean values ± SD of ≥2 independent experiments were calculated, and the activity of the complexes was expressed as the cell mass of the vehicle-treated control, which was set to 100%.
(§3) The compounds were investigated regarding their cytotoxicity (in vitro) employing an already published crystal violet assay. It is based on the quantification of the cell biomass of living cells by staining the chromatin. In order to evaluate the possible influence of COX inhibition on cell growth, Zeise’s salt derivatives were investigated comparatively in HT-29 and MCF-7 cell lines.

MCF-7 cells [5] = assay: Crystal violet assay, antiproliferative effects in MCF-7 cells; assay type: cell-based; details: MCF-7 (COX-negative), 72 h
Protocol: as §2, §3

[6] = system: PGE2 synthesis in HT-29 cells; assay: Inhibition of the PGE2 synthesis in HT-29 cells (PGE2 EIA); assay type: cell-based; details: 24 h at 37 °C, then 50 µM arachidonic acid 1 h; for Inhibition of PGE2 synthesis: 10 µM
Protocol: Exponentially growing HT-29 cells were seeded into 24-well plates at a concentration of 5 × 10^4 cells in 500 µL of cell culture medium per well. […] In the next step, the substrate arachidonic acid (Sigma Aldrich, St. Louis, MO, USA) at a concentration of 50 µM was added. After 1 h, the COX-catalyzed PGE2 production was stopped by removing the supernatant from the cells, which was analyzed by EIA (Prostaglandin E2 Kit—Monoclonal, Cayman Chemicals, Ann Arbor, MI, USA) according to the manufacturer’s protocol.
HT-29 cells express both isoenzymes at high levels, allowing COX-1/2 interaction to be studied using an antibody-based PGE2 assay, which quantifies the PGE2 released by the cells into the cell culture medium. All Zeise’s salt derivatives were tested at a concentration of 10 µM (Figure 4).

COX-1 [7] = molecular target: T1, COX-1; parameters: method as in PMID 29492489, PMID 31617517; details: isolated isoenzymes; cited from earlier work
COX-2 [8] = molecular target: T2, COX-2; parameters: method as in PMID 29492489, PMID 31617517; details: isolated isoenzymes; cited from earlier work
HT-29 cells [9] = system: HT-29 cells; parameters: method as in PMID 29848978; details: COX-1/2-positive HT-29 colon carcinoma cells; cited from earlier work
MCF-7 cells [10] = system: MCF-7 cells; parameters: method as in PMID 29848978; details: COX-negative MCF-7 breast cancer cells; cited from earlier work
[11] = parameters: method as in doi:10.1002/zaac.19603050315; details: forms elemental platinum in an internal redox reaction; cited from earlier work

Row | SMILES | Half-life (τ½) [1] [min] | Inhibition of COX-1 (COX-1 [2]; 1 µM) [%] | Inhibition of COX-2 (COX-2 [3]; 1 µM) [%] | IC50 (HT-29 cells [4]) [µM] | IC50 (MCF-7 cells [5]) [µM] | Inhibition of PGE2 synthesis [6] [%] | other results
1 | CC(=O)Oc1cc(Cl)ccc1C(=O)OCC[CH]1[CH2][Pt-]1([Cl])([Cl])[Cl].[K+] (stereo not shown) [4-Cl-ASA-But-PtCl3, Potassium trichlorido[η^2-(but-3-en-1-yl)-2-acetoxy-4-chlorobenzoate]platinate(II)] | 2370 ± 144 | 47.9 | 40.0 | 35.2 ± 9.3 | 31.7 ± 8.7 | – | –
2 | CC(=O)Oc1ccc(C)cc1C(=O)OC[CH]1[CH2][Pt-]1([Cl])([Cl])[Cl].[K+] (stereo not shown) [5-CH3-ASA-Prop-PtCl3, Potassium trichlorido[η^2-(prop-2-en-1-yl)-2-acetoxy-5-methylbenzoate]platinate(II)] | 36.7 ± 1.1 | – | – | 21.9 ± 4.6 | 70.2 ± 2.8 | 82.4 | –
3 | CC(=O)Oc1ccc(Cl)cc1C(=O)OC[CH]1[CH2][Pt-]1([Cl])([Cl])[Cl].[K+] (stereo not shown) [5-Cl-ASA-Prop-PtCl3, Potassium trichlorido[η^2-(prop-2-en-1-yl)-2-acetoxy-5-chlorobenzoate]platinate(II)] | 35.2 ± 0.9 | – | – | 53.4 ± 0.7 | 52.8 ± 9.2 | 84.0 | COX-1 selectivity (COX-1 [2]; from inhibition at 1 µM, COX-1 over COX-2): 1.7 fold
4 | CC(=O)Oc1c(Cl)cccc1C(=O)OC[CH]1[CH2][Pt-]1([Cl])([Cl])[Cl].[K+] (stereo not shown) [3-Cl-ASA-Prop-PtCl3, Potassium trichlorido[η^2-(prop-2-en-1-yl)-2-acetoxy-3-chlorobenzoate]platinate(II)] | 31.4 ± 1.7 | 51.7 | 58.8 | 89.7 ± 25.7 | 56.3 ± 5.8 | – | –
5 | CC(=O)Oc1ccc(C)cc1C(=O)OCC[CH]1[CH2][Pt-]1([Cl])([Cl])[Cl].[K+] (stereo not shown) [5-CH3-ASA-But-PtCl3, Potassium trichlorido[η^2-(but-3-en-1-yl)-2-acetoxy-5-methylbenzoate]platinate(II)] | 3140 ± 258 | 60.4 | 45.0 | 16.2 ± 2.5 | 32.5 ± 4.4 | – | –
6 | CC(=O)Oc1ccccc1C(=O)O [ASA, Acetylsalicylic acid] | – | – | – | – | – | – | inhibition at 10 µM ([6]; Homo sapiens): 17.9%; Concentration causing significant effects on COX-1 (COX-1 [7]): higher than 100 µM; Concentration causing significant effects on COX-2 (COX-2 [8]): higher than 100 µM
7 | CC(=O)Oc1ccccc1C(=O)OCC[CH]1[CH2][Pt-]1([Cl])([Cl])[Cl].[K+] (stereo not shown) [ASA-But-PtCl3] | 4180 | – | – | – | – | – | Growth inhibition in HT-29 cells (HT-29 cells [9]): low growth inhibitory potential; Growth inhibition in MCF-7 cells (MCF-7 cells [10]): nearly inactive
8 | C=C.O.[Cl][Pt-]([Cl])[Cl].[K+] [Zeise’s salt] | – | 37.3 | 1.5 | – | – | 24.5 | Inhibition of COX-1 (COX-1 [2]; 10 µM): 94.4%; Inhibition of COX-2 (COX-2 [3]; 10 µM): 8.3%; Stability in aqueous environment [11]: not stable
9 | CC(=O)Oc1cc(C)ccc1C(=O)OC[CH]1[CH2][Pt-]1([Cl])([Cl])[Cl].[K+] (stereo not shown) [4-CH3-ASA-Prop-PtCl3, Potassium trichlorido[η^2-(prop-2-en-1-yl)-2-acetoxy-4-methylbenzoate]platinate(II)] | 40.4 ± 1.1 | – | – | 24.2 ± 2.4 | 62.9 ± 1.6 | 88.4 | –
10 | CC(=O)Oc1ccccc1C(=O)OC[CH]1[CH2][Pt-]1([Cl])([Cl])[Cl].[K+] (stereo not shown) [ASA-Prop-PtCl3] | 35.7 | – | – | – | – | – | Growth inhibition in HT-29 cells (HT-29 cells [9]): low growth inhibitory potential; Growth inhibition in MCF-7 cells (MCF-7 cells [10]): nearly inactive
